We go through two molecules from patent US10208034B2, “Quinoline derivative” (ONO PHARMACEUTICAL CO., LTD., priority 2014, dated 2019).

The target in this assay is T1, Human CYP2C8 (Homo sapiens, UniProt P10632).
T1 construct: purchased Cypex; host or cells: E. coli
T1 sequence (P10632 1-490): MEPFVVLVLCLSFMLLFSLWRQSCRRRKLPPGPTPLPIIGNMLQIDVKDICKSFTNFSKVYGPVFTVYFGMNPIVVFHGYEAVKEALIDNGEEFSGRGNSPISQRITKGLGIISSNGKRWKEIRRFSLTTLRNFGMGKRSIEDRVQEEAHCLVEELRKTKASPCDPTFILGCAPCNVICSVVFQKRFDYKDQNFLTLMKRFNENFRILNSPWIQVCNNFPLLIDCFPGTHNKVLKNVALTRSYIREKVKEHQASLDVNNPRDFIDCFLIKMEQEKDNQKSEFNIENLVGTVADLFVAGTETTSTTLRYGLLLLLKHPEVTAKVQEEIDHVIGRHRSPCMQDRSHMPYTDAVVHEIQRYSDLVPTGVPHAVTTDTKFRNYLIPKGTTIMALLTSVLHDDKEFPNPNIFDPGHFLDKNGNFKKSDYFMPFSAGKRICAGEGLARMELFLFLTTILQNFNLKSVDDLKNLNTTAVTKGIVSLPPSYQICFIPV
The experiment in a line: Inhibitory activity of drug-metabolizing enzyme (human CYP2C8 inhibition effect). The assay is classed as in vitro ADME. The settings on record: E. coli-expressed CYP2C8, Luciferin-ME substrate, 37° C. 30 min, from inhibition at 1 and 10 μmol/L. As for the experimental part: The reaction was carried out in a 384-well plate. As the positive control substance (CYP2C8: quercetin), a solution, which had been adjusted with DMSO to have 300 times higher concentration than the final concentration (CYP2C8: 22.5 and 225 μmol/L) and been 75-fold diluted with purified water containing 2.7% acetonitrile, was prepared (CYP2C8: 0.3 and 3 μmol/L). […] Thereafter, 16 μL of luciferase solution was added to stop the reaction and to allow luciferin to emit light, and the luminescence intensity of the reaction solution was measured. The inhibition rate is a reduction rate (inhibition rate) of the luminescence intensity when compared with the control in which the reaction was carried out by the addition of DMSO in place of the test compound solution. The inhibition rate was calculated from the following mathematical formula. Inhibition rate (%)=100−{(luminescence intensity of test compound−background luminescence intensity)/(luminescence intensity of control−background luminescence intensity)×100} [Math. […]
The IC50 value of the compound of the present invention was measured using the measurement method described above.

SMILES strings stand for the structures.

A word on the IC50: it is the concentration that inhibits the measured activity by half. High values mean a need for much substance, low ones inhibition by little substance. For the molecule `COc1cc2nccc(Oc3ccc(NC(=O)c4cc(C(C)=O)cn(-c5ccccc5)c4=O)nc3)c2cc1OC` [Example 21, 5-acetyl-N-{5-[(6,7-dimethoxy-4-quinolinyl)oxy]-2-pyridinyl}-2-oxo-1-phenyl-1,2-dihydro-3-pyridinecarboxamide], the IC50 was > 10 µM.

Turning to `COc1cc2nccc(Oc3ccc(NC(=O)c4c5c(cn(-c6ccccc6)c4=O)C(=O)CCC5)nc3)c2cc1OC` [Example 42, N-{5-[(6,7-dimethoxy-4-quinolinyl)oxy]-2-pyridinyl}-3,8-dioxo-2-phenyl-2,3,5,6,7,8-hexahydro-4-isoquinolinecarboxamide], the concentration for half-maximal inhibition (IC50) is > 10 µM.
